{"source": "patent US11976064B2", "about": "“Toll-like receptor agonists” (Pfizer Inc., priority 2019, dated 2024)", "data": [{"target": "T1, human toll like receptor 8 (hTLR8) (Homo sapiens, UniProt Q9NR97)", "T1 construct": "host or cells: HEK293 (HEK-Blue hTLR8)", "T1 sequence (Q9NR97 27-1041)": "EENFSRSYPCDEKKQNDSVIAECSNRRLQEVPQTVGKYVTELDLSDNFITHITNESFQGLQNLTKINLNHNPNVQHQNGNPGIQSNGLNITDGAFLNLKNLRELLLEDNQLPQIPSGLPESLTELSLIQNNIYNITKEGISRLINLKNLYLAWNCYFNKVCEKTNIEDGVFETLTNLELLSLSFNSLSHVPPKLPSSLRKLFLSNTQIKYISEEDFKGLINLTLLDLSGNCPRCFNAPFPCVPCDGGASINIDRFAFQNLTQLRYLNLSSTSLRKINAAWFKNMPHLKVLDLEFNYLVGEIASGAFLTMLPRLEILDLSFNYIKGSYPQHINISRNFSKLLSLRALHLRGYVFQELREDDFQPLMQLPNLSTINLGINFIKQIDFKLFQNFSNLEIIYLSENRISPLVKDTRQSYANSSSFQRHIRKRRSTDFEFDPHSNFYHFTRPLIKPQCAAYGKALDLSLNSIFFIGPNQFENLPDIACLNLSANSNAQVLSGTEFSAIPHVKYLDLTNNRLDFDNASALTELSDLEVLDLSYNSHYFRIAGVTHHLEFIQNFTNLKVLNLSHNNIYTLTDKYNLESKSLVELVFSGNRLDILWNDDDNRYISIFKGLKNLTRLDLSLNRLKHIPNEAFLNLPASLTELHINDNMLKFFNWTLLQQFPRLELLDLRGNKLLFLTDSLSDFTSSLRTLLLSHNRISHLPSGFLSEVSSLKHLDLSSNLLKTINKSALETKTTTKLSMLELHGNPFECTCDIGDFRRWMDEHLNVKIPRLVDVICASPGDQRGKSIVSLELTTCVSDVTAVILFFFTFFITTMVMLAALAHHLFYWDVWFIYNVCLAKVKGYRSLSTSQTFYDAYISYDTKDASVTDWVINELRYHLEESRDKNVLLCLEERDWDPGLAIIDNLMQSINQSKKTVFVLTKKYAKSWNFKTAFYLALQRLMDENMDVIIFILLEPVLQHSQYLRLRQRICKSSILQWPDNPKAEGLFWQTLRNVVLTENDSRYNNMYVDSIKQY", "assay": "hTLR8 cell functional assay (HEK-Blue hTLR8 SEAP reporter)", "type": "cell-based", "settings": "HEK293 cells stably overexpressing hTLR8, SEAP reporter; geometric mean when tested more than once", "experimental": "The Examples described were tested for biological activity in functional cellular assays using HEK293 cells stably overexpressing human TLR7 or TLR8. The assays tested for the ability of each Example to stimulate secretion of interferon alpha (IFNα) in human primary blood mono nuclear cells (PBMC).\nTo determine the ability of each Example to activate the human toll like receptor 7 (hTLR7) or human toll like receptor 8 (hTLR8), cell-based reporter systems were utilized. HEK293 cells stably overexpressing either hTLR7 or hTLR8 along with a reporter gene containing an optimized secreted embryonic alkaline phosphatase gene (SEAP), under the control of the IFN-b minimal promoter fused to five NF-κB and AP-1-binding sites, were obtained from Invivogen (HEK-Blue™ hTLR7, cat #Hkb-ht1r7; HEK-Blue™ hTLR8, cat #Hkb-ht1r8). Stimulation of hTLR7 or hTLR8 in these cells activates NF-κB and AP-1 and induces the production of SEAP which can be quantified using an alkaline phosphatase detection reagent.\nCells were maintained in Dulbecco's Modified Eagle Media (DMEM) (containing Fetal Bovine Serum (FBS) heat inactivated (10%), Glutamax (2 mM), Penicillin/Streptomycin, Blasticidin (10 μg/ml), Zeocin (100 μg/ml) and Normocin (100 μg/ml)). On day one of the assay, Examples were prepared using 11-point half-log serial dilutions from a 10mM DMSO stock solution and 50 nl was spotted into 384-well Viewplates (PerkinElmer, cat #6007480). Positive control TLR7/8 agonist and negative control (DMSO, no Example) were also spotted within the assay plate and were used to determine percent effect during the analysis process. After resuspension in DMEM assay media containing FBS heat inactivated (10%), Glutamax (2 mM) and Penicillin/Streptomycin, 10,000 cells/20 μl/well were added to previously prepared plates. Plates were incubated overnight (16-20 hrs) at 37° C. in a 5% CO2 environment. Prewetted Microclime lids (Labcyte, LLS-0310) were used to prevent evaporation. On day two of the assay, QUANTI-Blue™ detection reagent was prepared by reconstituting QUANTI-Blue™ powder (InvivoGen, Rep-qb1) with 100 ml of sterile water and allowed to equilibrate to 37° C. for 15 minutes. 20 μl of QUANTI-Blue™ detection reagent was added to each well and plates were incubated at room temperature for 180 min. At the end of the incubation, plates were read on an Envision (Perkin Elmer) plate reader capturing absorbance at 650 nm.\nUsing Positive (TLR7/8 agonist) and Negative (DMSO) controls, the percent (%) effect was calculated for each Example using the following equation: effect=100−[100*{(Example−Positive Control)/(Negative Control−Positive Control)}]\nThe % effect at each concentration of each Example was calculated utilizing the ABase software suite (IBDS) and was relative to the amount of SEAP produced in the positive and negative control wells contained within each assay plate. The concentrations and % effect values for each Example were fit using a 4-parameter logistic model in ABase and the concentration of each Example that produced 50% response (EC50) was calculated.", "units": {"EC50": "nM"}, "values": [{"smiles": "CCOCc1nc2c(N)nc(C)c(C)c2n1CC(C)(CO)COC", "note": "(single isomer, unassigned) [Example 6, 3-(4-amino-2-(ethoxymethyl)-6,7-dimethyl-1H-imidazo[4,5-c]pyridin-1-yl)-2-(methoxymethyl)-2-methylpropan-1-ol]", "EC50": 6400}, {"smiles": "CCOCc1nc2c(N)nc(C)c(C)c2n1CC(C)(CO)COC", "note": "(single isomer, unassigned) [Example 7, 3-(4-amino-2-(ethoxymethyl)-6,7-dimethyl-1H-imidazo[4,5-c]pyridin-1-yl)-2-(methoxymethyl)-2-methylpropan-1-ol]", "EC50": 16500}, {"smiles": "CCOCc1nc2c(N)nc(C)c(C)c2n1CC(CO)CO", "note": "[Example 1, 2-((4-amino-2-(ethoxymethyl)-6,7-dimethyl-1H-imidazo[4,5-c]pyridin-1-yl)methyl)propane-1,3-diol]", "EC50": 2550}, {"smiles": "CCOCc1nc2c(N)nc(C)c(C)c2n1CC(C)(CO)CO", "note": "[Example 2, 2-((4-amino-2-(ethoxymethyl)-6,7-dimethyl-1H-imidazo[4,5-c]pyridin-1-yl)methyl)-2-methylpropane-1,3-diol]", "EC50": 811}, {"smiles": "CCOCc1nc2c(N)nc3ccccc3c2n1CC(C)(CO)CO", "note": "[Example 3, 2-((4-amino-2-(ethoxymethyl)-1H-imidazo[4,5-c]quinolin-1-yl)methyl)-2-methylpropane-1,3-diol]", "EC50": 194}, {"smiles": "Cc1nc(N)c2nc(CC(F)(F)F)n(CC(C)(CO)CO)c2c1C", "note": "[Example 8, 2-((4-amino-6,7-dimethyl-2-(2,2,2-trifluoroethyl)-1H-imidazo[4,5-c]pyridin-1-yl)methyl)-2-methylpropane-1,3-diol]", "EC50": 8020}, {"smiles": "CCOCc1nc2c(N)nc(C)c(C)c2n1CC(CC)(CO)CO", "note": "[Example 9, 2-((4-amino-2-(ethoxymethyl)-6,7-dimethyl-1H-imidazo[4,5-c]pyridin-1-yl)methyl)-2-ethylpropane-1,3-diol]", "EC50": 1440}, {"smiles": "CCCCc1nc2c(N)nc3ccccc3c2n1CC(C)(CO)CO", "note": "[Example 10, 2-((4-amino-2-butyl-1H-imidazo[4,5-c]quinolin-1-yl)methyl)-2-methylpropane-1,3-diol]", "EC50": 92}, {"smiles": "CCCCc1nc2c(N)nc3c(c2n1CC(C)(CO)CO)CCCC3", "note": "[Example 13, 2-((4-amino-2-butyl-6,7,8,9-tetrahydro-1H-imidazo[4,5-c]quinolin-1-yl)methyl)-2-methylpropane-1,3-diol]", "EC50": 104}, {"smiles": "CCCCc1nc2c(N)nc3c(c2n1CC(C)(CO)CO)CCC3", "note": "[Example 14, 2-((4-amino-2-butyl-7,8-dihydrocyclopenta[b]imidazo[4,5-d]pyridin-1(6H)-yl)methyl)-2-methylpropane-1,3-diol]", "EC50": 247}, {"smiles": "CCc1nc2c(N)nc3ccccc3c2n1CC(C)(CO)CO", "note": "[Example 15, 2-((4-amino-2-ethyl-1H-imidazo[4,5-c]quinolin-1-yl)methyl)-2-methylpropane-1,3-diol]", "EC50": 613}, {"smiles": "CCCc1nc2c(N)nc3ccccc3c2n1CC(C)(CO)CO", "note": "[Example 16, 2-((4-amino-2-propyl-1H-imidazo[4,5-c]quinolin-1-yl)methyl)-2-methylpropane-1,3-diol]", "EC50": 325}]}]}
